Measured values published in US20160287571A1, “PHARMACEUTICAL COMPOSITIONS COMPRISING ANTIBACTERIAL AGENTS” (priority 2013, published 2016).
Read-outs that look alike come from different tables or passages of the source.

Assays:
Assay type in all cases: cell-based, Acinetobacter baumannii
[1] = tested on: A. baumannii G 156 (OXA 51, OXA 23); assay: MIC in Muller Hinton Agar (CLSI agar dilution); conditions: Acinetobacter baumannii
Description: (§1) The antibacterial activity of combinations according to the invention against resistant bacterial strains was investigated. Minimum Inhibitory Concentration (MIC) for the combinations according to invention was determined in Muller Hinton Agar (MHA) (BD, USA) according to Clinical and Laboratory Standards Institute (CLSI) recommendations (Clinical and Laboratory Standards Institute (CLSI), Performance Standards for Antimicrobial Susceptibility Testing, 20th Informational Supplement, M 100-S20, Volume 30, No. 1, 2010). Typically, the test strains were adjusted to deliver about 10^4 CFU per spot with a multipoint inoculator (Applied Quality Services, UK). The plates were pored with MHA containing doubling concentration range of the test combinations according to invention. The plates were inoculated and were incubated at 35° C. for 18 hours.

[2] = tested on: A. baumannii J 144 (OXA 51, OXA 23); assay: MIC in Muller Hinton Agar (CLSI agar dilution); conditions: Acinetobacter baumannii
Description: as §1

[3] = tested on: A. baumannii M 126 (OXA 51, OXA 23); assay: MIC in Muller Hinton Agar (CLSI agar dilution); conditions: Acinetobacter baumannii
Description: as §1

[4] = tested on: A. baumannii NCTC 13301 (OXA 51, OXA 23); assay: MIC in Muller Hinton Agar (CLSI agar dilution); conditions: Acinetobacter baumannii
Description: as §1

[5] = tested on: A. baumannii NCTC 13302 (OXA 51, OXA 25); assay: MIC in Muller Hinton Agar (CLSI agar dilution); conditions: Acinetobacter baumannii
Description: as §1

[6] = tested on: A. baumannii NCTC 13303 (OXA 51, OXA 26); assay: MIC in Muller Hinton Agar (CLSI agar dilution); conditions: Acinetobacter baumannii
Description: as §1

[7] = tested on: A. baumannii NCTC 13304 (OXA 51, OXA 27); assay: MIC in Muller Hinton Agar (CLSI agar dilution); conditions: Acinetobacter baumannii
Description: as §1

[8] = tested on: A. baumannii NCTC 13305 (OXA 51, OXA 58); assay: MIC in Muller Hinton Agar (CLSI agar dilution); conditions: Acinetobacter baumannii
Description: as §1

[9] = tested on: A. baumannii Q 1460648 (OXA 51, OXA 23); assay: MIC in Muller Hinton Agar (CLSI agar dilution); conditions: Acinetobacter baumannii
Description: as §1

[10] = tested on: A. baumannii NCTC 13302 (OXA 51, OXA 25); assay: Time kill study; conditions: for Bacterial count: agent alone at 8 mcg/ml, initial count 6.54 log CFU/ml
Description: (§2) The synergistic killing effect of the combinations according to invention was studied using time kill studies. In a typical time kill study, freshly grown cultures were diluted to the required cell density (initial starting inoculum) in Cation adjusted Muller Hinton broth medium (BD, USA). The antibacterial agents (either alone or in combination) at the required concentrations were added into the culture-containing medium. The samples were incubated under shaking condition (120 rpm) at 37° C. Enumeration of viable bacterial count was done every 2 hour by diluting in normal saline and plating on to the Tryptic Soya Agar plates (BD, USA). The plates were incubated for 24 hours to arrive at the viable bacterial count. The results are expressed in terms of Log CFU per […]. In general, the decrease of 1 Log CFU/ml, corresponds to 90% killing of bacteria. Similarly, 2 Log CFU/ml reductions indicates 99% killing of bacteria and 3 Log CFU/ml reductions is equal to 99.9% killing of bacteria.

[11] = tested on: A. baumannii NCTC 13304 (OXA 51, OXA 27); assay: Time kill study; conditions: for Bacterial count: agent alone at 8 mcg/ml, initial count 6.06 log CFU/ml
Description: as §2

CC1(C)[C@H](C(=O)O)N2C(=O)C[C@H]2S1(=O)=O [Sulbactam, sulbactam]
MIC ([1]; read-out: MIC of Sulbactam, In presence of Compound of Formula (I) (4 mcg/ml), G 156): 4 µg/mL
MIC ([1]; read-out: MIC of Sulbactam, In presence of Compound of Formula (I) (8 mcg/ml), G 156): 2 µg/mL
MIC ([1]; agent alone, A. baumannii G 156): 8 µg/mL
MIC ([2]; read-out: MIC of Sulbactam, In presence of Compound of Formula (I) (4 mcg/ml), J 144): 2 µg/mL
MIC ([2]; read-out: MIC of Sulbactam, In presence of Compound of Formula (I) (8 mcg/ml), J 144): 1 µg/mL
MIC ([2]; agent alone, A. baumannii J 144): 16 µg/mL
MIC ([3]; read-out: MIC of Sulbactam, In presence of Compound of Formula (I) (4 mcg/ml), M 126): 8 µg/mL
MIC ([3]; read-out: MIC of Sulbactam, In presence of Compound of Formula (I) (8 mcg/ml), M 126): 2 µg/mL
MIC ([3]; agent alone, A. baumannii M 126): 32 µg/mL
MIC ([4]; NCTC13301, read-out: MIC of Sulbactam, In presence of Compound of Formula (I) (4 mcg/ml), NCTC 13301): 4 µg/mL
MIC ([4]; NCTC13301, read-out: MIC of Sulbactam, In presence of Compound of Formula (I) (8 mcg/ml), NCTC 13301): 2 µg/mL
MIC ([4]; NCTC13301, agent alone, A. baumannii NCTC 13301): 32 µg/mL
MIC ([5]; NCTC13302, read-out: MIC of Sulbactam, In presence of Compound of Formula (I) (4 mcg/ml), NCTC 13302): 4 µg/mL
MIC ([5]; NCTC13302, read-out: MIC of Sulbactam, In presence of Compound of Formula (I) (8 mcg/ml), NCTC 13302): 2 µg/mL
MIC ([5]; NCTC13302, agent alone, A. baumannii NCTC 13302): 32 µg/mL
MIC ([6]; NCTC13303, read-out: MIC of Sulbactam, In presence of Compound of Formula (I) (4 mcg/ml), NCTC 13303): 8 µg/mL
MIC ([6]; NCTC13303, read-out: MIC of Sulbactam, In presence of Compound of Formula (I) (8 mcg/ml), NCTC 13303): 4 µg/mL
MIC ([6]; NCTC13303, agent alone, A. baumannii NCTC 13303): 16 µg/mL
MIC ([7]; NCTC13304, read-out: MIC of Sulbactam, In presence of Compound of Formula (I) (4 mcg/ml), NCTC 13304): 2 µg/mL
MIC ([7]; NCTC13304, read-out: MIC of Sulbactam, In presence of Compound of Formula (I) (8 mcg/ml), NCTC 13304): 1 µg/mL
MIC ([7]; NCTC13304, agent alone, A. baumannii NCTC 13304): 8 µg/mL
MIC ([8]; NCTC13305, read-out: MIC of Sulbactam, In presence of Compound of Formula (I) (4 mcg/ml), NCTC 13305): 2 µg/mL
MIC ([8]; NCTC13305, read-out: MIC of Sulbactam, In presence of Compound of Formula (I) (8 mcg/ml), NCTC 13305): 1 µg/mL
MIC ([8]; NCTC13305, agent alone, A. baumannii NCTC 13305): 4 µg/mL
MIC ([9]; read-out: MIC of Sulbactam, In presence of Compound of Formula (I) (4 mcg/ml), Q 1460648): 4 µg/mL
MIC ([9]; read-out: MIC of Sulbactam, In presence of Compound of Formula (I) (8 mcg/ml), Q 1460648): 2 µg/mL
MIC ([9]; agent alone, A. baumannii Q 1460648): 16 µg/mL
Bacterial count ([10]; 2 hours): 5.74 Log CFU/ml
Bacterial count ([10]; 4 hours): 5.09 Log CFU/ml
Bacterial count ([10]; 6 hours): 6.04 Log CFU/ml
Bacterial count ([10]; 8 hours): 7.46 Log CFU/ml
Effect on bacterial counts throughout the duration of the study (in words) ([10]; A. baumannii NCTC 13302, summary of Table 3): did not reduce the bacterial counts
Bacterial count ([11]; 2 hours): 7.73 Log CFU/ml
Bacterial count ([11]; 4 hours): 7.07 Log CFU/ml
Bacterial count ([11]; 6 hours): 8.2 Log CFU/ml
Effect on bacterial counts throughout the duration of the study (in words) ([11]; A. baumannii NCTC 13304, summary of Table 4): did not reduce the bacterial counts
